One series is filed under the species Homo sapiens. The following applies: hepatocytes.
Series [1] in a line: in vivo. The following applies: rat.
Description: In vivo clearance in rat.
The species entered for another series is Rattus norvegicus. As to conditions: hepatocytes.
For another series, the species on record is Canis familiaris. As to conditions: dog, hepatocytes.
Series [2] can be described thus: clinical. As to conditions: human, in vivo.
Description: In vivo clearance in human.
The nature of series [3]: in vivo. The following applies: dog.
Description: In vivo clearance in dog.
Series [4] is described as follows: in vivo. As to conditions: rat. This is another data set of the same source.
The nature of series [5]: in vivo. The following applies: dog. The source holds these as a separate data set.
Series [6] can be described thus: clinical. The following applies: human, in vivo. This is another data set of the same source.
Description: In vivo clearance in human

Description for Canis familiaris: In vitro clearance in dog in 1000000 cells
Description for Homo sapiens: In vitro clearance in human in 1000000 cells
Description for Rattus norvegicus: In vitro clearance in rat in 1000000 cells

Turning to `C/C(=C\c1ccc(OCCN2CCOCC2)cc1)c1ccc2c(c1)C(C)(C)CCC2(C)C` [MOFAROTENE], the clearance in the series filed under Homo sapiens was 2 µL/min; in “in vivo [1]”, 16 mL/min/kg; in the series listed under Rattus norvegicus it was 2.3 µL/min; in the series filed under Canis familiaris it was 1 µL/min; in the series “clinical [2]” it was 11 mL/min/kg; in the series “in vivo [3]” it was 5.8 mL/min/kg.

For `Cn1c(=O)c2c(ncn2C)n(C)c1=O` [CAFFEINE], the clearance in the series filed under Homo sapiens amounted to 0.1 µL/min; in the series filed under Rattus norvegicus, 0.6 µL/min; in the series “in vivo [4]”, 13 mL/min/kg; in “in vivo [5]” it was 2.6 mL/min/kg; in the series listed under Canis familiaris, 0.2 µL/min; in the series “clinical [6]”, 2 mL/min/kg.

For `COc1ccccc1Oc1c(NS(=O)(=O)c2ccc(C(C)(C)C)cc2)nc(-c2ncccn2)nc1OCCO` [BOSENTAN], the clearance in the series filed under Homo sapiens worked out at 0.2 µL/min; in the series “in vivo [1]” it was 55 mL/min/kg; in the series listed under Rattus norvegicus, 1.3 µL/min; in the series filed under Canis familiaris it was 0.2 µL/min; in “clinical [2]”, 3.7 mL/min/kg; in “in vivo [3]”, 1.9 mL/min/kg.

With `Cn1c(=O)c2[nH]cnc2n(C)c1=O.O` [THEOPHYLLINE], the clearance was found to be 0.1 µL/min in the series filed under Homo sapiens; 0.2 µL/min in the series listed under Rattus norvegicus; 2.2 mL/min/kg in the series “in vivo [4]”; 1.5 mL/min/kg in “in vivo [5]”; 0.2 µL/min in the series listed under Canis familiaris; 0.6 mL/min/kg in the series “clinical [6]”.

With `O=C1Nc2ccc(Cl)cc2C(c2ccccc2Cl)=NC1O` (stereo not given) [LORAZEPAM], the clearance in the series filed under Homo sapiens was found to be 0.3 µL/min; in the series listed under Rattus norvegicus, 3.8 µL/min; in the series “in vivo [4]” it was 27.2 mL/min/kg; in “in vivo [5]”, 26.1 mL/min/kg; in the series listed under Canis familiaris it was 18.1 µL/min; in the series “clinical [6]” it was 1.1 mL/min/kg.

On to `COc1ccc([C@@H]2Sc3ccccc3N(CCN(C)C)C(=O)[C@@H]2OC(C)=O)cc1` [DILTIAZEM], for which the clearance was 1.9 µL/min in the series listed under Homo sapiens; 87.2 mL/min/kg in “in vivo [1]”; 43.6 µL/min in the series filed under Rattus norvegicus; 2.7 µL/min in the series listed under Canis familiaris; 46.1 mL/min/kg in the series “in vivo [3]”.

Take `C=CCN1CC[C@]23c4c5ccc(O)c4O[C@H]2C(=O)CC[C@@]3(O)[C@H]1C5` [NALOXONE]: the clearance in the series listed under Homo sapiens is 16.7 µL/min; in the series listed under Rattus norvegicus it was 54.6 µL/min; in the series “in vivo [4]”, 48.8 mL/min/kg; in “in vivo [5]” it was 42.5 mL/min/kg; in the series listed under Canis familiaris, 32.1 µL/min; in the series “clinical [6]”, 25 mL/min/kg.

On to `Cc1ncc2n1-c1ccc(Cl)cc1C(c1ccccc1F)=NC2` [MIDAZOLAM], for which the clearance in the series listed under Homo sapiens was found to be 4.5 µL/min; in “in vivo [1]”, 130 mL/min/kg; in the series listed under Rattus norvegicus it was 16.7 µL/min; in “clinical [2]”, 11 mL/min/kg.

As to `COCC(=O)O[C@]1(CCN(C)CCCc2nc3ccccc3[nH]2)CCc2cc(F)ccc2[C@@H]1C(C)C` [MIBEFRADIL], the clearance in the series filed under Homo sapiens was 0.9 µL/min; in the series “in vivo [1]” it was 94 mL/min/kg; in the series filed under Rattus norvegicus, 5.4 µL/min; in the series filed under Canis familiaris it was 6.2 µL/min; in the series “clinical [2]”, 7 mL/min/kg; in “in vivo [3]”, 36 mL/min/kg.

For the compound `CC(C)(C)S(=O)(=O)C[C@@H](Cc1ccccc1)C(=O)N[C@@H](Cc1cnc[nH]1)C(=O)N[C@@H](CC1CCCCC1)[C@@H](O)[C@@H](O)C1CC1`, the clearance in the series filed under Homo sapiens was 19.5 µL/min; in the series listed under Rattus norvegicus, 16.6 µL/min; in the series “in vivo [4]”, 119 mL/min/kg; in “in vivo [5]”, 3 mL/min/kg; in “clinical [6]” it was 19.6 mL/min/kg.

Consider `COC(=O)C1=C(C#N)NC(C)=C(C(=O)OC(C)C)C1c1cccc([N+](=O)[O-])c1` (stereo not given) [NILVADIPINE], for which the clearance in the series filed under Homo sapiens amounted to 13.3 µL/min; in the series listed under Rattus norvegicus, 29.7 µL/min; in “in vivo [4]” it was 94 mL/min/kg; in “in vivo [5]” it was 15.3 mL/min/kg; in the series filed under Canis familiaris, 10.9 µL/min; in the series “clinical [6]”, 20 mL/min/kg.

Regarding `CCOC(=O)C1=C(C)NC(C)=C(C(=O)OC)C1c1cccc([N+](=O)[O-])c1` (stereo not given) [NITRENDIPINE], the clearance in the series listed under Homo sapiens was 12 µL/min; in the series listed under Rattus norvegicus it was 24 µL/min; in the series “in vivo [4]”, 16.5 mL/min/kg; in the series “in vivo [5]”, 21.7 mL/min/kg; in the series listed under Canis familiaris it was 8.1 µL/min; in the series “clinical [6]” it was 18.7 mL/min/kg.

On to `Cc1cc(=O)n(-c2ccccc2)n1C` [ANTIPYRINE], for which the clearance is 0.1 µL/min in the series listed under Homo sapiens; 0.4 µL/min in the series listed under Rattus norvegicus; 7 mL/min/kg in the series “in vivo [4]”; 4.9 mL/min/kg in “in vivo [5]”; 1 µL/min in the series listed under Canis familiaris; 0.5 mL/min/kg in the series “clinical [6]”.

In the case of `Cc1ccc(C(=O)c2cc(O)c(O)c([N+](=O)[O-])c2)cc1` [TOLCAPONE], the clearance in the series filed under Homo sapiens amounted to 1.2 µL/min; in the series filed under Rattus norvegicus, 2.6 µL/min; in the series “in vivo [4]”, 15 mL/min/kg; in “in vivo [5]”, 3.3 mL/min/kg; in the series filed under Canis familiaris, 1.4 µL/min; in the series “clinical [6]” it was 2.7 mL/min/kg.

The values above are taken from ChEMBL document CHEMBL1132496, “Combining in vitro and in vivo pharmacokinetic data for prediction of hepatic drug clearance in humans by artificial neural networks and multivariate statistical techniques” (J Med Chem, 1999).
